Source: US11439707B2, “Hypocrellin derivative substituted both in a peri-position and in 2-position by amino, preparation method, and application thereof” (priority 2017, dated 2022)

Key:
[1] = singlet oxygen efficiency test, reference rose bengal; assay type: physicochemical
[2] = absorption spectrum (maximum absorption wavelength, molar extinction coefficient); assay type: physicochemical

Row | SMILES | singlet oxygen yield [1] [%] | maximum absorption wavelength [2] [nm] | molar extinction coefficient [2]
1 | COc1c2c3c4c(c(NCCOC(=O)N5CC(=O)NC(=O)C5)c(=O)c5c(NCCOC(=O)N6CC(=O)NC(=O)C6)cc(OC)c(c6c(OC)cc(O)c(c1=O)c63)c54)C=C(C)C2C(C)=O (stereo not drawn) [HB-40c] | 40 | 632 | 34,000 M^−1cm^−1
2 | COc1c(NCCOCCO)c2c(=O)cc(OC)c3c4c(OC)cc(=O)c5c(O)c(NCCOCCO)c6c(c(c1CC(C)=C6)c23)c54 [HC-1b] | 33 | 624 | 27,000 M^−1cm^−1
3 | COCCOCCOCCOCCOCCOCCOCCOCCOCCOCCOCCOCCOCCOCCOCCOCCOC(=O)C1CCC(CNc2c3c4c5c(c(OC)c(=O)c6c(NCC7CCC(C(=O)OCCOCCOCCOCCOCCOCCOCCOCCOCCOCCOCCOCCOCCOCCOCCOCCOC)CC7)cc(OC)c(c7c(OC)cc(O)c(c2=O)c74)c65)C(C(C)=O)C(C)=C3)CC1 (stereo not drawn) [HB-13d-PEG16] | 33 | 624 | 30,500 M^−1cm^−1
4 | COCCOCCOCCOCCOCCOCCOC(=O)CCCNc1c2c3c4c(c(OC)c(=O)c5c(NCCCC(=O)OCCOCCOCCOCCOCCOCCOC)cc(OC)c(c6c(OC)cc(O)c(c1=O)c63)c54)C(C(C)=O)C(C)=C2 (stereo not drawn) [HB-8d-PEG6] | 32 | 620 | 31,500 M^−1cm^−1
5 | COc1c2c3c4c(c(NCCC5CCC(O)CC5)c(=O)c5c(NCCC6CCC(O)CC6)cc(OC)c(c6c(OC)cc(O)c(c1=O)c63)c54)C=C(C)C2C(C)=O (stereo not drawn) [HB-18c] | 23 | 624 | 23,500 M^−1cm^−1
6 | COc1c2c3c4c(c(NCC5CCC(C(=O)O)CC5)c(=O)c5c(O)cc(OC)c(c6c(OC)cc(NCC7CCC(C(=O)O)CC7)c(c1=O)c63)c54)C=C(C)C2C(C)=O (stereo not drawn) [HB-13d] | 28 | 621 | 28,000 M^−1cm^−1
7 | COc1c2c3c4c(c(NCC(=O)O)c(=O)c5c(NCC(=O)O)cc(OC)c(c6c(OC)cc(O)c(c1=O)c63)c54)C=C(C)C2 [HC-7c] | 27 | 630 | 29,500 M^−1cm^−1
8 | COc1c2c3c4c(c(NC5(CO)CC5)c(=O)c5c(NC6(CO)CC6)cc(OC)c(c6c(OC)cc(O)c(c1=O)c63)c54)C=C(C)C2C(C)=O (stereo not drawn) [HB-35c] | 34 | 619 | 32,500 M^−1cm^−1
9 | COc1c2c3c4c(c(NC(CS)C(=O)O)c(=O)c5c(O)cc(OC)c(c6c(OC)cc(NC(CS)C(=O)O)c(c1=O)c63)c54)C=C(C)C2C(C)=O (stereo not drawn) [HB-25d] | 18 | 630 | 20,500 M^−1cm^−1
10 | COc1c2c3c4c(c(NC5CCCCC5C(=O)O)c(=O)c5c(NC6CCCCC6C(=O)O)cc(OC)c(c6c(OC)cc(O)c(c1=O)c63)c54)C=C(C)C2C(C)=O (stereo not drawn) [HB-16c] | 28 | 628 | 28,000 M^−1cm^−1
11 | COCCOCCOCCOCCOCCOCCOCCOCCOCCOCCOCCOCCOCCOCCOCCOCCOC(=O)C1CCC(CNc2c3c4c5c(c(OC)c(=O)c6c(NCC7CCC(C(=O)OCCOCCOCCOCCOCCOCCOCCOCCOCCOCCOCCOCCOCCOCCOCCOCCOC)CC7)cc(OC)c(c7c(OC)cc(O)c(c2=O)c74)c65)CC(C)=C3)CC1 (stereo not drawn) [HC-13d-PEG16] | 30 | 625 | 31,500 M^−1cm^−1
12 | COC(=O)C(CO)Nc1c2c3c4c(c(OC)c(=O)c5c(O)cc(OC)c(c6c(OC)cc(NC(CO)C(=O)OC)c(c1=O)c63)c54)C(C(C)=O)C(C)=C2 (stereo not drawn) [HB-24c] | 22 | 622 | 21,500 M^−1cm^−1
13 | COCCOCCC(=O)OCC1(Nc2c(NC3(COC(=O)CCOCCOC)CC3)c3c(=O)cc(OC)c4c5c(OC)cc(=O)c6c(O)c(OC)c7c(c(c2C=C(C)C7C(C)=O)c34)c65)CC1 (stereo not drawn) [HB-35a-PEG1] | 34 | 624 | 31,500 M^−1cm^−1
14 | COCCOC(=O)CCCNc1c(NCCCC(=O)OCCOC)c2c(=O)cc(OC)c3c4c(OC)cc(=O)c5c(O)c(OC)c6c(c(c1C=C(C)C6C(C)=O)c23)c54 (stereo not drawn) [HB-8a-PEG1] | 28 | 621 | 30,500 M^−1cm^−1
15 | COc1c(O)c2c(=O)cc(OC)c3c4c(OC)cc(=O)c5c(NCS(=O)(=O)O)c(NCCCS(=O)(=O)O)c6c(c(c1CC(C)=C6)c23)c54 [HC-45a] | 18 | 613 | 21,000 M^−1cm^−1
16 | CCCNc1c(NCCC)c2c(=O)cc(OC)c3c4c(OC)cc(=O)c5c(O)c(OC)c6c(c(c1C=C(C)C6C(C)=O)c23)c54 (stereo not drawn) [HB-33a] | 30 | 618 | 32,500 M^−1cm^−1
17 | COc1c2c3c4c(c(NCCC(=O)O)c(=O)c5c(O)cc(OC)c(c6c(OC)cc(NCCC(=O)O)c(c1=O)c63)c54)C=C(C)C2C(C)=O (stereo not drawn) [HB-10d] | 32 | 621 | 32,500 M^−1cm^−1

Row | SMILES | singlet oxygen yield [1] [%] | maximum absorption wavelength [2] [nm] | molar extinction coefficient [2]
18 | COCCOCCOCCOCCOCCOCCOC(=O)CCCCCNc1c(O)c2c(=O)cc(OC)c3c4c(OC)cc(=O)c5c(NCCCCCC(=O)OCCOCCOCCOCCOCCOCCOC)c(OC)c6c(c(c1C=C(C)C6)c23)c54 [HC-9b-PEG6] | 30 | 622 | 30,500 M^−1cm^−1
19 | CCCNc1c2c3c4c(c(OC)c(=O)c5c(NCCC)cc(OC)c(c6c(OC)cc(O)c(c1=O)c63)c54)C(C(C)=O)C(C)=C2 (stereo not drawn) [HB-33d] | 32 | 620 | 32,500 M^−1cm^−1
20 | COc1c2c3c4c(c(NC5CCCC(C(=O)O)C5)c(=O)c5c(NC6CCCC(C(=O)O)C6)cc(OC)c(c6c(OC)cc(O)c(c1=O)c63)c54)C=C(C)C2C(C)=O (stereo not drawn) [HB-15c] | 26 | 621 | 28,000 M^−1cm^−1
21 | COc1c2c3c4c(c(NCCCC(=O)NCCCCCCS(=O)(=O)O)c(=O)c5c(NCCCC(=O)NCCCCCCS(=O)(=O)O)cc(OC)c(c6c(OC)cc(O)c(c1=O)c63)c54)C=C(C)C2 [HC-8c-NH—C6-SO3H] | 35 | 632 | 33,500 M^−1cm^−1
22 | COc1c(NC(CCC(=O)O)C(=O)O)c2c(=O)cc(OC)c3c4c(OC)cc(=O)c5c(O)c(NC(CCC(=O)O)C(=O)O)c6c(c(c1C(C(C)=O)C(C)=C6)c23)c54 (stereo not drawn) [HB-28b] | 19 | 620 | 21,000 M^−1cm^−1
23 | COC(=O)C(CO)Nc1c2c3c4c(c(OC)c(=O)c5c(NC(CO)C(=O)OC)cc(OC)c(c6c(OC)cc(O)c(c1=O)c63)c54)C(C(C)=O)C(C)=C2 (stereo not drawn) [HB-24d] | 20 | 621 | 20,500 M^−1cm^−1
24 | CCCCCCNc1c(NCCCCCC)c2c(=O)cc(OC)c3c4c(OC)cc(=O)c5c(O)c(OC)c6c(c(c1C=C(C)C6)c23)c54 [HC-34a] | 30 | 625 | 31,500 M^−1cm^−1
25 | COc1c(O)c2c(=O)cc(OC)c3c4c(OC)cc(=O)c5c(NCCOCCO)c(NCCOCCO)c6c(c(c1C(C(C)=O)C(C)=C6)c23)c54 (stereo not drawn) [HB-1a] | 35 | 630 | 30,000 M^−1cm^−1
26 | COc1c(NCC2CCC(C(=O)O)CC2)c2c(=O)cc(OC)c3c4c(OC)cc(=O)c5c(O)c(NCC6CCC(C(=O)O)CC6)c6c(c(c1C(C(C)=O)C(C)=C6)c23)c54 (stereo not drawn) [HB-13b] | 26 | 621 | 28,000 M^−1cm^−1
27 | COc1c(O)c2c(=O)cc(OC)c3c4c(OC)cc(=O)c5c(NC(C(=O)O)C(C)C)c(NC(C(=O)O)C(C)C)c6c(c(c1C(C(C)=O)C(C)=C6)c23)c54 (stereo not drawn) [HB-22a] | 18 | 621 | 21,000 M^−1cm^−1
28 | CCNc1c2c3c4c(c(OC)c(=O)c5c(O)cc(OC)c(c6c(OC)cc(NC7CCCC7)c(c1=O)c63)c54)C(C(C)=O)C(C)=C2 (stereo not drawn) [HB-44c] | 20 | 624 | 21,000 M^−1cm^−1
29 | COc1c2c3c4c(c(NC5CCC(C(=O)O)C5)c(=O)c5c(O)cc(OC)c(c6c(OC)cc(NC7CCC(C(=O)O)C7)c(c1=O)c63)c54)C=C(C)C2C(C)=O (stereo not drawn) [HB-19d] | 20 | 625 | 24,000 M^−1cm^−1
30 | COc1c(O)c2c(=O)cc(OC)c3c4c(OC)cc(=O)c5c(NCCC6CCC(O)CC6)c(NCCC6CCC(O)CC6)c6c(c(c1C(C(C)=O)C(C)=C6)c23)c54 (stereo not drawn) [HB-18a] | 20 | 614 | 24,000 M^−1cm^−1
31 | COc1c(O)c2c(=O)cc(OC)c3c4c(OC)cc(=O)c5c(NC6CCCCC6C(=O)O)c(NC6CCCCC6C(=O)O)c6c(c(c1C(C(C)=O)C(C)=C6)c23)c54 (stereo not drawn) [HB-16a] | 25 | 620 | 25,500 M^−1cm^−1
32 | COCCOCCOCCOCCOCCOCCOCCC(=O)OCCOCCNc1c(O)c2c(=O)cc(OC)c3c4c(OC)cc(=O)c5c(NCCOCCOC(=O)CCOCCOCCOCCOCCOCCOCCOC)c(OC)c6c(c(c1C=C(C)C6)c23)c54 [HC-1b-PEG6] | 30 | 624 | 30,000 M^−1cm^−1
33 | CCCCCCNc1c2c3c4c(c(OC)c(=O)c5c(NCCCCCC)cc(OC)c(c6c(OC)cc(O)c(c1=O)c63)c54)CC(C)=C2 [HC-34d] | 32 | 628 | 32,000 M^−1cm^−1
34 | COc1c(O)c2c(=O)cc(OC)c3c4c(OC)cc(=O)c5c(NCCCCCC(=O)O)c(NCCCCCC(=O)O)c6c(c(c1CC(C)=C6)c23)c54 [HC-9a] | 26 | 620 | 26,500 M^−1cm^−1
